What follows are compounds tested against MAPK14 (human) (UniProt Q16539) (assay: Inhibition of MAPK14 Kinase Activity).
Chain of MAPK14 (human) (Q16539 whole entry, looked up): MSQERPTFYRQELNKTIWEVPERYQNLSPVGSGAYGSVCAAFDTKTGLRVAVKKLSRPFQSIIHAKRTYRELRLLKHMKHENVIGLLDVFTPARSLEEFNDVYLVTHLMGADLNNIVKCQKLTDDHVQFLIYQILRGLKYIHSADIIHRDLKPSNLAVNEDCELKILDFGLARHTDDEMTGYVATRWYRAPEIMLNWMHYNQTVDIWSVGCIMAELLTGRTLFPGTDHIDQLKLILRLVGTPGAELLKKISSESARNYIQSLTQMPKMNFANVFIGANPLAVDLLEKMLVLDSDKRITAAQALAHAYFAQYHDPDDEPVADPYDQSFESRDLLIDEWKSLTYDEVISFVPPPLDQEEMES

SMILES | IC50 [nM]
CC(C)Nc1ncc(-c2cc(-c3cccc(F)c3)c3nncn3c2)s1 | 91
CCC(CC)Nc1ncc(-c2cc(-c3cccc(C#N)c3)c3nccn3c2)s1 | 807
CC[C@@H](C)Nc1ncc(-c2cn3ccnc3c(-c3ccccc3O)n2)s1 | 809
CCOC(=O)c1ccccc1-c1cc(-c2cnc(NC(C)C)s2)cn2ccnc12 | 795
Cc1ccc(C)c(-c2cc(-c3cnc(NC(C)C)s3)cn3ccnc23)c1 | 1540
CC(C)Nc1ncc(-c2cc(-c3cccc(C#N)c3)c3nccn3c2)s1 | 926
CC(C)C(C)Nc1ncc(-c2cc(-c3ccccc3)c3nccn3c2)s1 (configuration not stated) | 41.6
COC(=O)Cc1cn2cc(-c3cn[nH]c3)cc(-c3ccccc3)c2n1 | 924
Cc1ccccc1-c1cc(-c2cnc(NCCN(C)C)s2)cn2ccnc12 | 1780
Fc1ccccc1-c1nc(-c2cnc(NC3CCOCC3)s2)cn2ccnc12 | 109
CC(C)Nc1ncc(-c2cc(-c3ccccc3)c3nncn3c2)s1 | 581
CC(C)Nc1ncc(-c2cc(-c3ccccc3C#N)c3nccn3c2)s1 | 669
CCCCNc1ncc(-c2cc(-c3ccccc3)c3nc(C(=O)OCC)cn3c2)s1 | 40
CC(C)Nc1ncc(-c2cc(-c3ccc(F)c(Cl)c3)c3nncn3c2)s1 | 604
CC(C)Nc1ncc(-c2cn3ccnc3c(-c3ccccc3)n2)s1 | 60
Cc1c(-c2cc(-c3ccccc3)c3nccn3c2)cnn1-c1ccccc1 | 630

The remaining compounds from weak to strong by IC50, led by results:

IC50 [nM] | SMILES
40 | CCOCC(C)Nc1ncc(-c2cn3ccnc3c(-c3ccccc3F)n2)s1 (configuration not stated)
39 | CC(C)C(C)Nc1ncc(-c2cc(-c3ccccc3Cl)c3nccn3c2)s1 (configuration not stated)
38 | CC(C)Nc1cnc(-c2cc(-c3ccccc3)c3nc(CCO)cn3c2)s1
37 | CNC(=O)c1cn2cc(-c3cnc(NC(C)C)s3)cc(-c3ccccc3)c2n1
35.8 | Fc1ccc(-c2cc(-c3cnc(NC4CCOCC4)s3)cn3ccnc23)cc1
33 | CC[C@@H](C)Nc1ncc(-c2cc(-c3ccccc3)c3nc(CC(=O)OC)cn3c2)s1
23 | CC[C@@H](C)Nc1ncc(-c2cn3ccnc3c(-c3ccccc3F)n2)s1
15 | CC(C)Nc1ncc(-c2cc(-c3ccccc3Cl)c3nncn3c2)s1
13 | CC(C)Nc1ncc(-c2cc(-c3ccccc3F)c3nncn3c2)s1
6 | CCOC(=O)c1cn2cc(-c3cnc(N[C@H](C)CC)s3)cc(-c3ccccc3F)c2n1
5.9 | CC[C@@H](C)Nc1ncc(-c2cc(-c3ccccc3Cl)c3nccn3c2)s1
5.7 | CC[C@@H](C)Nc1ncc(-c2cc(-c3ccc(F)cc3F)c3nccn3c2)s1
5.2 | Cc1cscc1-c1cc(-c2cnc(NC(C)C)s2)cn2ccnc12
5 | CC[C@@H](C)Nc1ncc(-c2cc(-c3ccccc3C)c3nccn3c2)s1
3.4 | CC[C@@H](C)Nc1ncc(-c2cc(-c3ccccc3F)c3nccn3c2)s1
3 | CC[C@@H](C)Nc1ncc(-c2cc(-c3cscc3C)c3nccn3c2)s1

Reference: the Kinase Knowledgebase extract (Sharma et al. 2016)
